System: Moderate to Severe Crohn's Disease Patients
Assay: Phase III 52-week maintenance of remission study LAQ-CD-303 (Example 4)
Type: in vivo, human
Experimental: A phase III, randomized, double-blind, placebo-controlled 52-week maintenance of remission study is conducted in active moderate to severe Crohn's disease patients.
Subjects with a Response during the 8-week induction studies LAQ-CD-202, LAQ-CD-301, or LAQ-CD-302 are re-randomized into this placebo-controlled maintenance study. Response in those induction studies was defined as a Crohn's Disease Activity Index (CDAI) reduction of at least 70 points from Baseline and CDAI <220 at Week 8 of the induction study in the absence of treatment failure (TF); in particular, this included subjects in Remission. In those 3 induction studies, TF was defined as follows: any new medication/treatment (including surgery) for Crohn's disease (CD) or dose increase not allowed by the protocol, throughout the study period; any early termination from the study was also regarded as TF. No de novo subjects are included in this study.
Remission: Subjects with CDAI <150 with no Treatment Failure (TF) during the course of the study.
Steroid Free Remission: Subjects achieving both Remission and steroid free.
IBDQ Response: An increase from baseline in total IBDQ score of ≧16 points.
IBDQ Remission: A total IBDQ score of >170 points.
Treatment duration is 52 weeks. Scheduled in-clinic visits are conducted at Baseline (Week 0), and at Weeks 2, 4, 8, 12, 16, 20, 28, 36, 44, and 52. The Week 0 visit for this maintenance study is the same as the Week 8 visit in the induction study. Unscheduled visits for safety or for any other reason may be conducted at any time during the study.
Primary Efficacy Endpoint: • The primary endpoint is evaluated for subjects who belong to the PEC. • The proportion of subjects in Remission at Week 52.
Secondary Efficacy Endpoints: • The secondary endpoints are evaluated for subjects who belong to the PEC. • The proportion of subjects in Sustained Remission (defined as Remission at Week 36 and Week 52). • The proportion of subjects with Steroid-free Remission at Week 52. • Mean change in total IBDQ score from Baseline to Week 52. • Proportion of subjects with an IBDQ Response at Week 52. • Proportion of subjects with IBDQ Remission at Week 52.

CCN(C(=O)c1c(O)c2c(Cl)cccc2n(C)c1=O)c1ccccc1 [laquinimod]
effective: improve and/or maintain IBDQ score by Week 52 (0.25 mg/day) | induce and/or maintain IBDQ Remission by Week 52 (0.25 mg/day) | induce and/or maintain IBDQ Response by Week 52 (0.25 mg/day) | induce and/or maintain Remission by Week 52 (0.25 mg/day) | induce and/or maintain steroid-free Remission by Week 52 (0.25 mg/day) | sustain Remission (Remission at Week 36 and Week 52) (0.25 mg/day) | improve and/or maintain IBDQ score by Week 52 (0.5 mg/day) | induce and/or maintain IBDQ Remission by Week 52 (0.5 mg/day) | induce and/or maintain IBDQ Response by Week 52 (0.5 mg/day) | induce and/or maintain Remission by Week 52 (0.5 mg/day) | induce and/or maintain steroid-free Remission by Week 52 (0.5 mg/day) | sustain Remission (Remission at Week 36 and Week 52) (0.5 mg/day)

Source: patent US9161935B2 (TEVA PHARMACEUTICAL INDUSTRIES, LTD., priority 2012, dated 2015)
